Target: T1, human cathepsin S (hCatS) (Homo sapiens, UniProt P25774)
T1 construct: gene CTSS
Test: fluorogenic enzyme inhibition assay, Cbz-Val-Val-Arg-AMC substrate; Ki from IC50
Assay type: biochemical

T1 sequence (P25774 115-331): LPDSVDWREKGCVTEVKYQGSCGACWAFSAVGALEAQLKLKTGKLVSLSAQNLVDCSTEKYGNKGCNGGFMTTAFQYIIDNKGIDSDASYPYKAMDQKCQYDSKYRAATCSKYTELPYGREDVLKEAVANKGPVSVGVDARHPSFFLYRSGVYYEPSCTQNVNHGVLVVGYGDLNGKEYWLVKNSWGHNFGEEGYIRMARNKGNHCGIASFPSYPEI

SMILES	Ki [nM]
CC(=O)/C=C/[C@H](C[C@@H]1CCNC1=O)NC(=O)[C@H](CC1CC1)NC(=O)OCc1ccccc1 [SPR39]	45.1 ± 3.8
CCCC[C@H](NC(=O)OCc1ccccc1)C(=O)N[C@H](/C=C/C(C)=O)C[C@@H]1CCNC1=O [SPR38]	58.8 ± 3.6
CC(=O)/C=C/[C@H](C[C@@H]1CCNC1=O)NC(=O)[C@H](CC1CCCCC1)NC(=O)OCc1ccccc1 [SPR41]	10.7 ± 1.1

From article PMC12566624, “A Second Opportunity for the Peptide-Based Analogues with γ-Lactam at the P1 Position: Human Cathepsin S Inhibition” (Pharmaceuticals, 2025)
